Where two headings read alike, the source gives them in different places.
Legend:
[1] = target: T1, PARP-1 (Homo sapiens, UniProt P09874); assay: Western blot of poly(ADP-ribose) (PAR) and PARP-1 in MSTO-211H cells; assay type: cell-based; conditions: 5 µM, 72 h
T1 construct: endogenous in cells; host or cells: MSTO-211H cells
Experimental: The effect of the most promising complex 6 on PARP-1 activity was further evaluated. MSTO-211H cells were treated with equimolar concentrations (5 µM) of 6, CDDP, and 3-ABA for 72 h. The two last compounds were used either alone or in combination in a 1:1 molar ratio. Western blot analysis evaluated the expression of poly(ADP-ribose) (PAR), which is the product of PARP-1 activity (Figure 4A).
For protein analysis, cells were extracted with 1% NP-40 lysis buffer (50 mM Tris-HCl pH 8.5 containing 1% NP-40, 150 mM NaCl, 10 mM EDTA, 10 mM NaF, 10 mM Na4P2O7, and 0.4 mM Na3VO4) with freshly added protease inhibitors (10 μg mL^−1 leupeptin, 4 μg mL^−1 pepstatin, and 0.1 U mL^−1 aprotinin). Lysates were centrifuged at 13,000× g for 10 min at 4 °C and the supernatants were collected and assayed for protein concentration with the Bradford assay method (Bio-Rad). Proteins were separated by SDS-PAGE (sodium dodecyl sulfate polyacrylamide gel electrophoresis) under reducing conditions. Following SDS-PAGE, proteins were transferred to nitrocellulose, reacted with specific antibodies, and then detected with peroxidase-conjugate secondary antibodies and chemioluminescent ECL reagent. Digital images were taken with the Bio-Rad ChemiDocTM Touch Imaging System and quantified using Bio-Rad Image Lab 5.2.1.
Figure 4 (A) Representative Western blot showing poly(ADP-ribose) (PAR) and PARP-1 expression following 72 h MSTO-211H cell treatment with diluent (Ctrl) or 5 µM concentrations of cisplatin (CDDP), 6, CDDP + 3-ABA combination (1:1 ratio), and 3-ABA alone. HSC70 protein was used as loading control. (B) Immunocytochemistry was used to capture representative γH2AX focus images following 72 h MSTO-211H cell treatment with diluent (Ctrl) or 5 µM of complex 6.

[2] = tested on: MSTO-211H cells; assay: Cell uptake (intracellular Pt by ICP-MS); assay type: cell-based, human; conditions: 10 μM, 4 h treatment, mean ± sd
Experimental: Cellular accumulation of compounds 6–9 was evaluated by means of the intracellular Pt uptake after 4 h treatment of MSTO-211H cells and expressed as ng Pt per 10^6 cells (Table 1). As expected, the Fmoc protection of 6 and 7 enhances the lipophilicity of the complexes, facilitating their cell uptake. Also the elongation of the organic linker from -(CH2)2- to -(CH2)6- increases (to a minor extent) the lipophilicity in 7 and 9 with respect to 6 and 8.
MSTO-211H cells were seeded in […] Petri dishes and challenged with the compounds and mixtures under investigations (10 μM) in complete medium. At the end of the exposure, cells were washed three times with phosphate buffered saline (PBS) and detached from the Petri dishes using 0.05% Trypsin 1X + 2% EDTA (HyClone, Thermo Fisher). The cells were harvested in fresh complete medium and an automatic cell counting device (Countess®, Life Technologies, Carlsbad, CA, USA) was used to measure the number and the mean diameter from every cell count. The harvested cells were transferred into a borosilicate glass tube and centrifuged at 1100× g rpm for 5 min at room temperature. The supernatant was carefully removed by aspiration, but about 200 μL of the supernatant was left in order to limit the cellular loss. Finally, the cellular pellets were stored at −80 °C. Platinum content determination was performed by ICP-MS (Thermo Optek X Series 2). Complete mineralization was obtained by the addition of 70% w/w HNO3 to each sample (after defrosting), followed by incubation for 1 h at 60 °C in an ultrasonic bath. Before the ICP-MS measurement, the HNO3 was diluted to a final 1% concentration. The instrumental settings were optimized to yield maximum sensitivity for platinum, and the most abundant isotopes of Pt (m/z = 195) and In (m/z = 115, used as internal standard) were quantified. The level of Pt found in cells after the treatment was normalized to the cell number and expressed as ng of Pt per 10^6 cells.

[3] = tested on: MM98 (sarcomatoid) malignant pleural mesothelioma cells; assay: Cell viability assay (Trypan blue dye exclusion), MM98; assay type: cell-based, human; conditions: 72 h treatment; for IC50: mean ± sd
Experimental: (§1) Complexes 6–9 were tested on a panel of human MPM cell lines together with CDDP and SAA1, added for comparison (Table 1). The half-maximal inhibitory concentration, IC50, was determined on MSTO-211H (biphasic phenotype), REN (epithelioid), BR95 (epithelioid), and MM98 (sarcomatoid) cancer cell lines to identify the most promising Pt(IV) conjugate to be further investigated. To determine the number of viable cells, the use of the dye exclusion assay was preferred to the colorimetric assay because of the heterogeneity in the energy metabolism between the different MPM cell lines. This may justify minor differences with respect to the previously published IC50 for CDDP [40].
(§2) Cells were seeded at a density of 10 × 10^4 cells per well in 6-well plates in RPMI medium supplemented with 10% fetal bovine serum (FBS), 100 μg mL^−1 streptomycin, and 10 μg mL^−1 penicillin and incubated overnight at 37 °C in a humidified environment containing 5% CO2 to allow adherence. Cisplatin was dissolved in 0.9% w/v aqueous NaCl brought to pH = 3 with HCl (final stock concentration 1 mM). The Pt(IV) complexes were dissolved in DMSO (final stock concentration 5 mM); the resulting solutions were microfiltered (0.45 μm) and their Pt content was checked by ICP-MS (see Section 3.5.2). These mother solutions were diluted in complete medium to the required concentration range.
(§3) Following 72 h of treatment with the diluent of the compound (Ctrl) or different doses of the Pt compounds, cells were trypsinized and stained with Trypan blue. The number of cells considered viable (unstained cells) was counted in a Bürker haemocytometer within 5 min after staining.

[4] = tested on: BR95 (epithelioid) malignant pleural mesothelioma cells; assay: Cell viability assay (Trypan blue dye exclusion), BR95; assay type: cell-based, human; conditions: 72 h treatment; for IC50: mean ± sd
Experimental: as §1, §2, §3

[5] = tested on: REN (epithelioid) malignant pleural mesothelioma cells; assay: Cell viability assay (Trypan blue dye exclusion), REN; assay type: cell-based, human; conditions: 72 h treatment; for IC50: mean ± sd
Experimental: as §1, §2, §3

[6] = tested on: MSTO-211H (biphasic phenotype) malignant pleural mesothelioma cells; assay: Cell viability assay (Trypan blue dye exclusion), MSTO-211H; assay type: cell-based, human
Experimental: as §1, §2, §3

[7] = Reduction with ascorbic acid followed by RP-HPLC; assay type: physicochemical; conditions: ascorbic acid 10 mM, HEPES 50 mM pH 7.4, 37 °C, cosolvent DMF or MeOH
Experimental: To verify the activation by reduction mechanism, complexes 6–9 were challenged with the model bioreductant ascorbic acid (AA, 10 mM in water) in HEPES buffer (HEPES = 4-(2-hydroxyethyl)-1-piperazineethanesulfonic acid, 50 mM, pH = 7.4) at 37 °C. The reaction was monitored by following the RP-HPLC peaks over 24 h. The different solubility and retention times required different experimental conditions for the different compounds (cosolvent DMF or MeOH was necessary to maintain the Pt compounds in solution, >5% v/v). For these reasons, complete reduction for 8 and 9 was observed after 8 h, whereas for 6 and 7, the >85% peak area disappeared after 24 h only. […] Complexes 6–9, having very similar coordination skeletons, can be expected to behave in the same way.
The reduction of complexes with ascorbic acid was followed by monitoring of the reduction of the area of their chromatographic peaks via RP-HPLC over 24 h at 37 °C. The Pt compounds were dissolved in methanol or DMF (up to 20 mM) and diluted with different quantities of 50 mM 4-(2-hydroxyethyl)piperazine-1-ethanesulfonic acid (HEPES) buffer (pH = […]) containing 10 mM ascorbic acid. The mixtures were microfiltered to eliminate the precipitated complex. The chromatographic conditions were similar to those for the determination of lipophilicity (see Section 3.4), with different percentages of methanol depending on the complex.

[8] = Lipophilicity by RP-HPLC (log k′); assay type: physicochemical; conditions: RP-HPLC C18, 15 mM formic acid/CH3OH 30/70
Description: Since it has been reported that Pt(IV) complexes enter cells by passive diffusion only, with a few exceptions, the evaluation of lipophilicity is key because it is related to the ability of a molecule to passively cross cellular membranes. RP-HPLC techniques are often used to measure the lipophilicity of a compound, since the retention is due to partitioning between the C18 chains of the stationary phase (representing the cellular membrane) and the aqueous eluent (representing the water inside and outside cells). For this purpose, the retention times (tR) of the complexes were transformed as log k′, where k′ = (tR − t0)/t0) and t0 is the column dead-time (Table 1).
RP-HPLC was used to evaluate the capacity factors of the compounds as reported elsewhere. Briefly, a chromatogram for each Pt complex (0.5 mM) was run on a C18 column Phenosphere-NEXT (5-μm, 250 × 4.6 mm ID) with an eluant composition of 15 mM formic acid/CH3OH 30/70 and a flow rate of 0.5 mL min^−1. The corresponding retention time tR was used to calculate log k′, where k′ = (tR − t0)/t0. The dead time of the column t0 was the tR of KCl, added as unretained internal reference.

[9] = 72 h treatment, mean ± sd, read-out: IC50 MSTO-211H

T1 sequence (P09874 whole entry): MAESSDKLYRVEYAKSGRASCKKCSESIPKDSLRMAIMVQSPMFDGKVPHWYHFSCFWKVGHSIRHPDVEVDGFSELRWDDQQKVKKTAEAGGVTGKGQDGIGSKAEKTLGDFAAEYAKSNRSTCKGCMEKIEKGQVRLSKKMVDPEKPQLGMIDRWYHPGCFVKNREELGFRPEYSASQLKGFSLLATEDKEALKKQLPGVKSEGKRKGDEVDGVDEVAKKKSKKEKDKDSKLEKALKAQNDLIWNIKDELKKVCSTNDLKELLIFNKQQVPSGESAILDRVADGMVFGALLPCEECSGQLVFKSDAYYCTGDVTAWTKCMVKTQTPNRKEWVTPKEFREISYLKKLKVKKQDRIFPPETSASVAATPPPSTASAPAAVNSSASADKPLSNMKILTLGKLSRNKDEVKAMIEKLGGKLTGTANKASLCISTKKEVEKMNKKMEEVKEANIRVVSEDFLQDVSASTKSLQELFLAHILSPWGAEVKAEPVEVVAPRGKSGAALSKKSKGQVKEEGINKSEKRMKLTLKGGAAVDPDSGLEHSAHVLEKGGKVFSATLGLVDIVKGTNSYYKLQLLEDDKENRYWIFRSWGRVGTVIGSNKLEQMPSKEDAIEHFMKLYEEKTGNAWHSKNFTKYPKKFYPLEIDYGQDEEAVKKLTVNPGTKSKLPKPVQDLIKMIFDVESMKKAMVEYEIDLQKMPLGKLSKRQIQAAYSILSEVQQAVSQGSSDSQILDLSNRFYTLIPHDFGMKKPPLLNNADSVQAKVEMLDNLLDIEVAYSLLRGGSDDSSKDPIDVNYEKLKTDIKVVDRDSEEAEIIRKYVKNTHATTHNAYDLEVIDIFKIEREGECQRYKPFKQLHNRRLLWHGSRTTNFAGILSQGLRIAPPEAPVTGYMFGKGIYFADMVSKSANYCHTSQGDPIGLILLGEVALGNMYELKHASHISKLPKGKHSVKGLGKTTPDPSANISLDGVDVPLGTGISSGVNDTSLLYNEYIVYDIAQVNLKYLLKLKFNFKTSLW

| Structure (SMILES) | IC50 [3] [µM] | IC50 [4] [µM] | IC50 [5] [µM] | IC50 [6, 9] [µM] | IC50 ([6]; Homo sapiens, MSTO-211H, read-out: IC50 on MSTO-211H) [µM] | peak area disappeared after 24 h ([7]; 24 h) [%] | Log k′ [8] | time to complete reduction [7] [h] | PARP-1 cleavage [1] | PARP-1 parylation (PAR expression) [1] | Pt Uptake [2] [ng Pt per 10^6 Cells] | ratio IC50 (cisplatin)/IC50 (Pt(IV) complex), MM98 [3] | ratio IC50 (cisplatin)/IC50 (Pt(IV) complex), BR95 [4] | ratio IC50 (cisplatin)/IC50 (Pt(IV) complex), REN [5] | ratio IC50 (cisplatin)/IC50 (Pt(IV) complex), MSTO-211H ([6]; 72 h treatment) |
| --- | --- | --- | --- | --- | --- | --- | --- | --- | --- | --- | --- | --- | --- | --- | --- |
| N.N.[Cl][Pt][Cl] [Cisplatin, CDDP, (SP-4-2)-diamminedichloridoplatinum(II), reference compound] | 1.75 ± 0.09 | 2.15 ± 0.29 | 3.07 ± 0.43 | 1.14 ± 0.07 | – | – | – | – | did not induce PARP-1 cleavage | increase in PARP-1 parylation | 9.23 ± 0.96 | – | – | – | – |
| NC(=O)c1cccc(N)c1 [Compound 3-ABA, 3-aminobenzamide, reference compound] | – | – | – | – | 5412 ± 28 | – | – | – | – | No self-parylation of PARP-1 | – | – | – | – | – |
| CC(=O)[O][Pt]([NH2])([NH2])([Cl])([Cl])[O]C(=O)CCCCCCNC(=O)c1cccc(NC(=O)OCC2c3ccccc3-c3ccccc32)c1 [Compound 7, (OC-6-44)-Acetato-[7-(3-(fmoc-amino)-benzamido)-heptanoato]-diammine-dichlorido-platinum(IV)] | 0.45 ± 0.08 | 2.19 ± 0.13 | 2.22 ± 0.08 | 1.48 ± 0.02 | – | > 85 | 5.84 | – | – | – | 10.86 ± 1.17 | 3.9 | 0.98 | 1.4 | 0.77 |

Further lines, with some results ahead:

| IC50 [3] [µM] | IC50 [4] [µM] | IC50 [5] [µM] | IC50 [6, 9] [µM] | IC50 ([6]; Homo sapiens, MSTO-211H, read-out: IC50 on MSTO-211H) [µM] | peak area disappeared after 24 h ([7]; 24 h) [%] | Log k′ [8] | time to complete reduction [7] [h] | Structure (SMILES) | PARP-1 cleavage [1] | PARP-1 parylation (PAR expression) [1] | Pt Uptake [2] [ng Pt per 10^6 Cells] | ratio IC50 (cisplatin)/IC50 (Pt(IV) complex), MM98 [3] | ratio IC50 (cisplatin)/IC50 (Pt(IV) complex), BR95 [4] | ratio IC50 (cisplatin)/IC50 (Pt(IV) complex), REN [5] | ratio IC50 (cisplatin)/IC50 (Pt(IV) complex), MSTO-211H ([6]; 72 h treatment) |
| --- | --- | --- | --- | --- | --- | --- | --- | --- | --- | --- | --- | --- | --- | --- | --- |
| 58.4 ± 2.7 | 56.8 ± 4.3 | 46.9 ± 3.2 | 28.9 ± 2.9 | – | – | 0.25 | 8 | CC(=O)[O][Pt]([NH2])([NH2])([Cl])([Cl])[O]C(=O)CCNC(=O)c1cccc(N)c1 [Compound 8, (OC-6-44)-Acetato[3-(3-aminobenzamido)-propanoato]-diammine-dichlorido-platinum(IV)] | – | – | 2.50 ± 1.16 | 0.030 | 0.038 | 0.065 | 0.039 |
| 44.1 ± 3.5 | 39.7 ± 2.7 | 38.9 ± 2.2 | 54.9 ± 3.1 | – | – | 0.34 | 8 | CC(=O)[O][Pt]([NH2])([NH2])([Cl])([Cl])[O]C(=O)CCCCCCNC(=O)c1cccc(N)c1 [Compound 9, (OC-6-44)-Acetato-[7-(3-aminobenzamido)-heptanoato]-diammine-dichlorido-platinum(IV)] | – | – | 3.12 ± 0.78 | – | 0.054 | 0.079 | 0.021 |

From PMC8402032, “Unsymmetric Cisplatin-Based Pt(IV) Conjugates Containing a PARP-1 Inhibitor Pharmacophore Tested on Malignant Pleural Mesothelioma Cell Lines” (Molecules, 2021)
